Experimental data published in patent US5496697A, “Methods and apparatus for detecting the effect of cell affecting agents on living cells” (priority 1993, dated 1996).

Columns and labels:
MDCK cells = test: metabolic rate of MDCK cells grown on the silicon sensor surface; type: cell-based, canine; conditions: 3 μM epinephrine, primary introduction
Dx5 = conditions: previously characterized; cited from earlier work

| SMILES | change of metabolic rate vs. control rate (MDCK cells) | resistance of Dx5 (Dx5) |
| --- | --- | --- |
| CNC[C@H](O)c1ccc(O)c(O)c1 [epinephrine] | did not significantly alter the metabolic rate | – |
| CC[C@]1(O)C[C@H]2CN(CCc3c([nH]c4ccccc34)[C@@](C(=O)OC)(c3cc4c(cc3OC)N(C=O)[C@H]3[C@@](O)(C(=O)OC)[C@H](OC(C)=O)[C@]5(CC)C=CCN6CC[C@]43[C@@H]65)C2)C1 [vincristine] | – | resistant |
| COc1cccc2c1C(=O)c1c(O)c3c(c(O)c1C2=O)C[C@@](O)(C(=O)CO)C[C@@H]3O[C@H]1C[C@H](N)[C@H](O)[C@H](C)O1 [doxorubicin] | – | resistant |
